In ChEMBL document CHEMBL1127541, “3,4-Dihydro-3-amino-2H-1-benzopyran derivatives as 5-HT1A receptor ligands and potential anxiolytic agents. 1. Synthesis and structure--activity relationship studies” (J Med Chem, 1994) one finds IC50 data, which are given here for twelve compounds.

As a reminder, the IC50 is the concentration at which inhibition is half-maximal. Low readings indicate greater potency, high ones weaker potency.

Test [1] addresses T1, Alpha-2A adrenergic receptor (Bos taurus, UniProt Q28838).
T1 sequence (Q28838 whole entry): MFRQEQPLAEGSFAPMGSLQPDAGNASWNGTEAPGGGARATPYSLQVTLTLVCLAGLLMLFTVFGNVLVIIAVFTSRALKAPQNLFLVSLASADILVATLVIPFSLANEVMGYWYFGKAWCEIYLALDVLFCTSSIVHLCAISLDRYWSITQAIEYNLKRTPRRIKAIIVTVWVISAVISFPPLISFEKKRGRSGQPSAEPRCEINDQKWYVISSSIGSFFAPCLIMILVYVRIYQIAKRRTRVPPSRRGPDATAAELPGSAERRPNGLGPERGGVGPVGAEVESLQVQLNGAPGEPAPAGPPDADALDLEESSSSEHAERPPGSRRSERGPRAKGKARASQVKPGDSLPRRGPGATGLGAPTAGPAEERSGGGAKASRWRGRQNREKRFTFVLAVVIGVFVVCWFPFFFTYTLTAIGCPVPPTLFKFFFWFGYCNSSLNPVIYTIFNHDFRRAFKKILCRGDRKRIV
Description: Binding affinity against alpha-2 adrenergic receptor in calf frontal cortex. Type of test: tissue-based.

In the next test the target is D(1A) dopamine receptor (Bos taurus, UniProt Q95136). Nature of the test: Binding affinity towards dopamine receptor D1 in calf striatum. The class given is tissue-based.
D(1A) dopamine receptor, sequence (Q95136 whole entry): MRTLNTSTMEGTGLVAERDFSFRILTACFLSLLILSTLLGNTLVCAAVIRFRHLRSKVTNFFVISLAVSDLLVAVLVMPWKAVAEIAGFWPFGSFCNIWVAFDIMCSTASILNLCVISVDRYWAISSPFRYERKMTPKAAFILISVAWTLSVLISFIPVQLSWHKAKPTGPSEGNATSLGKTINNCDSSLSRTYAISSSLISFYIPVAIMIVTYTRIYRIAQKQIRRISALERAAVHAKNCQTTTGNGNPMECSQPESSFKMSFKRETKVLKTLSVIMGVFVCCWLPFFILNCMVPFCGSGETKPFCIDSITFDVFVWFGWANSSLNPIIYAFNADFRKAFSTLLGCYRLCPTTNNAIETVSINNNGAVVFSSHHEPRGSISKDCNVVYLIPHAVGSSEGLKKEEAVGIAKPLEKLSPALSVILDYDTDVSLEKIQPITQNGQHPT
The next test concerns the target D(2) dopamine receptor (Bos taurus, UniProt P20288). Nature of the test: Binding affinity against D2 receptor in calf caudate nucleus.
The target in test [2] is T2, 5-hydroxytryptamine receptor 1A (Rattus norvegicus, UniProt P19327).
T2 sequence (P19327 whole entry): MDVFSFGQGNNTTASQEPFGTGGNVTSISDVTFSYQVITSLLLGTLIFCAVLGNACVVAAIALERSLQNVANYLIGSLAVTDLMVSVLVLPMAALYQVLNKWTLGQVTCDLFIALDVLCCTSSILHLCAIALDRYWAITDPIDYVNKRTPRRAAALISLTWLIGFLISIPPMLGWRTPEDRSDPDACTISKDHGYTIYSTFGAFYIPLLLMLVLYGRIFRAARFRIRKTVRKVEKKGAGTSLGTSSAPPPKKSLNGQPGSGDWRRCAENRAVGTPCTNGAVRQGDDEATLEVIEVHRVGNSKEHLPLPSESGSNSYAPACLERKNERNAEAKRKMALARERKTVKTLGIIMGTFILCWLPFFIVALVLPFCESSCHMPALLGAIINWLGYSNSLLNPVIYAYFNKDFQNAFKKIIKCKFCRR
Nature of the test: Binding affinity against 5-hydroxytryptamine 1A (5-HT1A) receptor in rat hippocampus membranes. Type of test: cell membranes, Membrane.

Test [3] has as its target T3, Alpha-1A adrenergic receptor (Bos taurus, UniProt P18130).
T3 sequence (P18130 whole entry): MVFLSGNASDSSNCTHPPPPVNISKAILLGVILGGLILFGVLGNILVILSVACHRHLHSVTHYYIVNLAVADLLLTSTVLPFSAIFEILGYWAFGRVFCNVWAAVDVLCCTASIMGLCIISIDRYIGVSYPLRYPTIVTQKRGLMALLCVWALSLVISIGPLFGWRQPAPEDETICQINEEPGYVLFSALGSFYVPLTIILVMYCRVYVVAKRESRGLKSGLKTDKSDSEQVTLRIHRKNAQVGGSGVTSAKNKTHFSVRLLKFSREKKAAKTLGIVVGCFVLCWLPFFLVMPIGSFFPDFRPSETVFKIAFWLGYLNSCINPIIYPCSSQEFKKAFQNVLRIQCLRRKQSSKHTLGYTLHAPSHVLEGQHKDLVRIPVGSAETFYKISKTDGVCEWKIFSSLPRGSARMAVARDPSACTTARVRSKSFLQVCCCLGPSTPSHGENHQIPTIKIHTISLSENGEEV
Nature of the test: Binding affinity against alpha-1 adrenergic receptor in calf frontal cortex. The class given is tissue-based.

In test [4] the target is 5-hydroxytryptamine receptor 2A (Bos taurus, UniProt Q75Z89). Description: Binding affinity towards 5-hydroxytryptamine 2 receptor in calf frontal cortex. The class given is tissue-based.
5-hydroxytryptamine receptor 2A, sequence (Q75Z89 whole entry): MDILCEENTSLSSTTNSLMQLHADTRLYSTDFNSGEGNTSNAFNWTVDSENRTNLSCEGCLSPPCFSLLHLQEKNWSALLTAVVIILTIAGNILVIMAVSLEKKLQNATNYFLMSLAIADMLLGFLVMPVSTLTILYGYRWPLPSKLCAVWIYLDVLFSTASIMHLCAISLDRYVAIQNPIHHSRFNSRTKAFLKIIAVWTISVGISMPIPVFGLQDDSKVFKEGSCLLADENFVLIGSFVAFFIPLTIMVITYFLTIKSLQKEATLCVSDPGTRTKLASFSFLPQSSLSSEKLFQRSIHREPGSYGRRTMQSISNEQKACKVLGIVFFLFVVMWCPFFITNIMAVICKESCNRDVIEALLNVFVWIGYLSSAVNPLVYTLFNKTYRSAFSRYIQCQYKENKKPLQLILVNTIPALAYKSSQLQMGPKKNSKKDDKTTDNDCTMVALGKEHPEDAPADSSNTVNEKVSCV
Test [5] concerns the target 5-hydroxytryptamine receptor 1B (Rattus norvegicus, UniProt P28564). Nature of the test: Binding affinity for 5-hydroxytryptamine 1B receptor in rat cortex, striatum and globus pallidus. The class given is tissue-based.

5-hydroxytryptamine receptor 1B, sequence (P28564 whole entry): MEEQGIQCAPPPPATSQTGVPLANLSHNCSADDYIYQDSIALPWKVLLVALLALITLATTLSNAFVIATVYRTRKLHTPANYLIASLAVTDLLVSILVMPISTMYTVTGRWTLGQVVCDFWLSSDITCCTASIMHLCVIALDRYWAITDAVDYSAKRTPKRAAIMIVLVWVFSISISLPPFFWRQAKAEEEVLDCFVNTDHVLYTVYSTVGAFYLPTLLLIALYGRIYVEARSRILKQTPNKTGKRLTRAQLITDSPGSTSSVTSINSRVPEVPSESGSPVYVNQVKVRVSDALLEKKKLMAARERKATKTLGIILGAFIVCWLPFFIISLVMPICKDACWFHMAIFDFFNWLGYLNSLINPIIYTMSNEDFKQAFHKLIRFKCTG
D(2) dopamine receptor, sequence (P20288 whole entry): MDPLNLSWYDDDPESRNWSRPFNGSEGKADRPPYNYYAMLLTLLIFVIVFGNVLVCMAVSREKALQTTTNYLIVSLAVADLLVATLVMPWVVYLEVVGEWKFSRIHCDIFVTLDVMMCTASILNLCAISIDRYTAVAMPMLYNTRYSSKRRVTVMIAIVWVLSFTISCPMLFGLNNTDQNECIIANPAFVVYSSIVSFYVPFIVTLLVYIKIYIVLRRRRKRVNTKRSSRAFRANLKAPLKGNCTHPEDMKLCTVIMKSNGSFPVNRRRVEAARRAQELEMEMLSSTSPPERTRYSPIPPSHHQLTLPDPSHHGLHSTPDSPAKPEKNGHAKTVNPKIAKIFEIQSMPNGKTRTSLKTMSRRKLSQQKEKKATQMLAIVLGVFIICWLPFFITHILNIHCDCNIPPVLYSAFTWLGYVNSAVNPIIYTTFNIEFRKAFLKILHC

Take `CCCN(CCCCN1C(=O)C2CCCC2C1=O)C1COc2cccc(OC)c2C1` (stereo in doubt; 9k): the IC50 is 5 µM in test [1]; 40 µM at D(1A) dopamine receptor; 0.02 µM on D(2) dopamine receptor; 0.002 µM in test [2]; 7 µM in test [3]; 9 µM in test [4]. This compound also gave a half-inhibitory concentration (IC50) in test [5] of 20 µM.
In the case of `CCCN(CCCCN1C(=O)c2ccccc2S1(=O)=O)C1COc2cccc(OC)c2C1` (stereo unspecified), the concentration for half-maximal inhibition (IC50) in test [1] amounted to 40 µM; on D(1A) dopamine receptor it was 50 µM; on D(2) dopamine receptor, 0.09 µM; in test [2], 0.001 µM; in test [3], 1 µM; in test [4], 10 µM. The compound also showed an IC50 in test [5] of 1 µM.
As to `O=C1c2ccccc2S(=O)(=O)N1CCCCN1CCN(c2ncccn2)CC1` [IPSAPIRONE], the 50% inhibitory concentration (IC50) in test [1] was 2.8 µM; on D(1A) dopamine receptor, 12 µM; on D(2) dopamine receptor, > 1000 µM; in test [2] it was 0.035 µM; in test [3] it was 1.2 µM; in test [4] it was 7.5 µM. Also, the concentration for half-maximal inhibition (IC50) in test [5] came out at 50 µM.
With `CCCN(CCCCNC(=O)c1ccccc1OC)C1COc2cccc(OC)c2C1` (stereo unspecified), the 50% inhibitory concentration (IC50) amounted to 0.1 µM in test [1]; 0.01 µM at D(2) dopamine receptor; 0.001 µM in test [2]; 3 µM in test [3]; 4 µM in test [4]; 1 µM in test [5].
As to `CCCN(CCCCN1C(=O)c2ccccc2C1=O)C1COc2cccc(OC)c2C1` (stereo unspecified), the IC50 in test [1] turned out to be 2 µM; on D(1A) dopamine receptor, 40 µM; on D(2) dopamine receptor it was 0.03 µM; in test [2], 0.05 µM; in test [3] it was 5 µM; in test [4], 30 µM. In test [5], this compound had an IC50 of 0.4 µM.
For the compound `COc1cccc2c1CC(NCCCCN1C(=O)c3ccccc3C1=O)CO2` (stereo unspecified), the IC50 in test [1] amounted to 4 µM; at D(1A) dopamine receptor it was 30 µM; on D(2) dopamine receptor, 5 µM; in test [2], 0.09 µM; in test [3] it was 1000 µM; in test [4] it was 0.6 µM. In test [5], the concentration for half-maximal inhibition (IC50) was 7 µM.
As for `CCCN(CCC)C1COc2cccc(O)c2C1` (stereo unspecified), the concentration for half-maximal inhibition (IC50) in test [1] is 2 µM; at D(1A) dopamine receptor, 100 µM; on D(2) dopamine receptor, 0.4 µM; in test [2] it was 0.004 µM; in test [3], 100 µM; in test [4] it was > 100 µM. Moreover, in test [5], the IC50 is > 100 µM.
Take `CCCN(CCCCN1C(=O)CC2(CCCC2)CC1=O)C1COc2ccccc2C1` (stereo unspecified): the concentration for half-maximal inhibition (IC50) in test [1] was determined as 10 µM; at D(1A) dopamine receptor it was 40 µM; at D(2) dopamine receptor, 0.004 µM; in test [2], 0.002 µM; in test [3] it was 7 µM; in test [4] it was 2 µM. The compound also came in with an IC50 in test [5] of 30 µM.
In the case of `CCCN(CCC)C1COc2cccc(OC)c2C1` (single isomer, unassigned; (+)), the IC50 in test [1] is 9.1 µM; at D(1A) dopamine receptor, > 1000 µM; on D(2) dopamine receptor, 0.14 µM; in test [2] it was 0.002 µM; in test [3], 2.3 µM; in test [4], 9.7 µM. In addition, in test [5], the IC50 turned out to be 0.51 µM.
On to `CCCN(CCCCN1CC2CCCC2C1=O)C1COc2cccc(OC)c2C1` (stereo unspecified), for which the concentration for half-maximal inhibition (IC50) came to 4 µM in test [1]; 60 µM at D(1A) dopamine receptor; 0.003 µM on D(2) dopamine receptor; 0.001 µM in test [2]; 5 µM in test [3]; 2 µM in test [4]. In test [5], the IC50 was determined as 30 µM.
Take `CCCN(CCCCNS(=O)(=O)c1ccc(C)cc1)C1COc2cccc(OC)c2C1` (single isomer, unassigned; (+)): the IC50 in test [1] came out at 2 µM; at D(1A) dopamine receptor, 20 µM; on D(2) dopamine receptor, 0.1 µM; in test [2], 0.0007 µM; in test [3], 3 µM; in test [4] it was 8 µM. In test [5], this compound displayed an IC50 of 9 µM.
Regarding `O=C1CC2(CCCC2)CC(=O)N1CCCCN1CCN(c2ncccn2)CC1` [BUSPIRONE], the IC50 in test [1] is 10 µM; on D(1A) dopamine receptor, 27 µM; on D(2) dopamine receptor, 4 µM; in test [3] it was 16 µM; in test [4] it was 10 µM.
